Reference: patent US10604476B2, “Fluorinated amide derivatives and their uses as therapeutic agents” (Trillium Therapeutics Inc., priority 2015, dated 2020)

Tests used:
corneal kindled seizures = experiment: Corneal kindling mouse model; format: in vivo
Description: Mice are kindled electrically with 3 sec stimulation, 8 mA, 60 Hz, and corneal electrodes to a criterion of 10 consecutive Stage 5 seizures (facial clonus and head nodding progressing to forelimb clonus, and finally rearing and falling accompanied by a generalized clonic seizure as described by Racine). Stage 5 is generally reached after twice daily stimulation for 8 days. With continued stimulation once a day, animals usually progress to a reproducible Stage 5 after 10-14 additional days. At least 72 hours after the mice have been kindled, the test substance is administered either i.p. or p.o. and, at the previously determined TPE, each animal is given the electrical stimulus indicated above. Following stimulation, the animals are observed for the presence or absence of the rearing and falling criteria of a Stage 5 seizure. Treated animals not displaying a Stage 3, 4, or 5 seizure are considered protected. The dose of the test substance is varied between the limits of 0 and 100% efficacy, and the ED50 and 95% confidence intervals calculated by probit analysis. Mean values and the S.E.M. are calculated for the length of clonus and seizure duration and p values are determined by the Student's t-test.

[1] = tested on: lithium pilocarpine-induced status epilepticus; experiment: Pilocarpine-induced status epilepticus rat model; format: in vivo
Experimental: While most seizures are often short duration events that resolve spontaneously, status epilepticus (SE) events are characterized by continuous epileptic seizures or a series of seizures lasting longer than 30 minutes. Typically, treatment of SE requires emergency room intervention with either diazepam or lorazepam, immediately followed by phenytoin or phenobarbital. However, up to 15% of SE episodes can be refractory to these conventional therapies, thus identifying novel treatments that can be applied in the drug-refractory period, i.e. benzodiazepine-resistant SE, is of critical value to the clinical management of SE. The lithium-pilocarpine model is used to study the effects of a test compound on benzodiazepine-resistant SE. Sprague Dawley rats (n=8 per group; 100-150 g) are injected with lithium chloride (LiCl) solution (127 mg/kg). Animals are then used for the lithium pilocarpine-induced SE test 20-24 hours following LiCl injection. On the day of the test, animals are weighed and then injected with pilocarpine (50 mg/kg; i.p.) before being placed in an observation cage. In the initial convulsive-SE behavioral observation studies, adult rats receive a dose of the investigational compound, which was found in rat MES quantification to produce MMI. […] The ED50 and ED97 in this behavioral assay (30 minute time point) are determined for promising investigational compounds.

[2] = tested on: mEC-HC slice from KA-treated rats; experiment: Spontaneously bursting hippocampal slice in vitro model; format: cell-based, rat; conditions: 100 μM, FIG. 2
Description: An in vitro screen uses the medial entorhinal cortex-hippocampal (mEC-HC) slice obtained from kainic acid (KA)-treated animals to identify compounds that may be effective in pharmacoresistant epilepsy. Systemic KA treatment in rats is an accepted model of temporal lobe epilepsy (TLE), where an initial insult results in status epilepticus and is followed by a sustained latent period that subsequently gives way to the development of spontaneous seizures. […] Moreover, the mEC-HC slices obtained from KA-treated rats are hyperexcitable in normal artificial cerebrospinal fluid (ACSF) solution as early as one week following KA-induced SE. Thus, this test screens investigational compounds for any potential efficacy against pharmacoresistant TLE. […]
Kainic acid administration/low dose: Animals were treated with Kainic Acid (Tocris, 0222) following a modified protocol described previously (Hellier et al 1998). Seizure activity is scored throughout KA administration using the Racine scale (Racine, 1972). […] Once stage 4-5 seizures are observed, injections cease and the number and stage of seizures observed are recorded on seizure score sheets. The animals are observed and seizures recorded for a minimum of 3.5 h. […]

C[C@@H](Oc1cc(Cl)cc(C(F)(F)F)c1)C(N)=O [I(D), (2R)-2-[3-chloro-5-(trifluoromethyl)-phenoxy]propanamide]
Average Seizure (corneal kindled seizures; 35 mg/kg): 5
N/F, number of animals active over the number tested (corneal kindled seizures; 35 mg/kg): 0/8
Average Seizure (corneal kindled seizures; 70 mg/kg): 4.6
N/F, number of animals active over the number tested (corneal kindled seizures; 70 mg/kg): 1/8
Average Seizure (corneal kindled seizures; 140 mg/kg): 2.4
N/F, number of animals active over the number tested (corneal kindled seizures; 140 mg/kg): 5/8
Average Seizure (corneal kindled seizures; 300 mg/kg): 0.8
N/F, number of animals active over the number tested (corneal kindled seizures; 300 mg/kg): 8/8
ED50 (corneal kindled seizures; Mus musculus, corneal kindled mice, read-out: ED50, reduction of seizure score (seizure severity)): 70.4 ± 1 mg/kg
effect in chemically induced SE, administered 30 minutes after the appearance of seizures ([1]; 130 mg/kg): effective
effect in chemically induced SE, administered at the time of the chemical insult ([1]; time zero, 65 mg/kg): effective
network hyperexcitability (spontaneous burst activity and duration) [2]: effectively suppressed
